Reference: US20210284621A1 (priority 2018, published 2021)
pEC50, pKi: −log10 of the molar value. Read-outs that look alike come from different tables or passages of the source.

Key:
CB2 receptor [1] = molecular target: T1, CB2 receptor (Homo sapiens, UniProt P34972); test: cAMP Assay #2: Hit Hunter cAMP assay, Gi-coupled agonist activity, CB2; type: cell-based; parameters: host or cells: cAMP Hunter cell lines; conditions: for CB2 fold selectivity: CB1 EC50 / CB2 EC50
Method: (§1) Compounds of the invention were assayed in the Hit Hunter® cAMP assay to determine Gi-coupled agonist activity on the CB1 and CB2 receptors, the results of which are provided in Table 5.
(§2) The Hit Hunter® cAMP assay monitors the activation of a GPCR via Gi and […] secondary messenger signaling in a homogenous, non-imaging assay format using a technology developed by DiscoverX called Enzyme Fragment Complementation (EFC) with β-galactosidase (β-Gal) as the functional reporter. […] ED is fused to cAMP and in the assay competes with cAMP generated by cells for binding to a cAMP-specific antibody. Active β-Gal is formed by complementation of exogenous EA to any unbound ED cAMP. Active enzymes can then convert a chemiluminescent substrate, generating an output signal detectable on a standard microplate reader.
(§3) cAMP Hunter cell lines were expanded from freezer stocks according to standard procedures. Cells were seeded in a total volume of 20 μL into white walled, 384-well microplates and incubated at 37° C. for the appropriate time prior to testing. cAMP modulation was determined using the DiscoverX Hit Hunter cAMP XS+ assay. For Gi agonist activity determination, cells were incubated with sample in the presence of EC80 forskolin to induce response (20 μM and 25 μM in the CB1 and CB2 assays, respectively). Media was aspirated from cells and replaced with 15 μL 2:1 HBSS/10 mM HEPES:cAMP XS+Ab reagent.
(§4) Intermediate dilution of sample stocks was performed to generate 4× sample in assay buffer. 5 μL of 4× compound was added to cells and incubated at 37° C. or room temperature for 30 or 60 minutes. Final vehicle concentration was 1%. Assay signal was generated through incubation with 20 μL cAMP XS+ED/CL lysis cocktail for one hour at room temperature. Microplates were read following signal generation with a PerkinElmer Envision™ instrument for chemiluminescent signal detection. Compound activity was analyzed using CBIS data analysis suite (Chem Innovation, CA). For agonist assays, percentage activity was calculated using the following formula: % Activity=100%×(1−(mean RLU of test sample−mean RLU of Max control ligand)/(mean RLU of vehicle control−mean RLU of Max control ligand). Control ligand was the non-selective CB1/CB2 agonist CP55,940.

CB2 receptor [2] = molecular target: T1, CB2 receptor; test: CB2 competitive radioligand binding assay ([3H] WIN-55,212-2); parameters: expressed in transfected cells; host or cells: CHO-K1 cells
Method: (§5) J Med Chem. 41(26): 5177-5187 (1998); and Munro S., et al. Molecular characterization of a peripheral receptor for cannabinoids. Nature 365:61-65 (1993).
CB2 Radioligand Binding Assay: A compound of the invention (0.05 μM in 1% DMSO) was incubated with CHO-K1 cells expressing human recombinant CB2 receptor in buffer (20 mM HEPES, pH 7.0, 0.5% BSA) for 90 minutes at 37° C. in the presence of 2.4 nM [H^3] WIN-55,212-2 (CB2 radioligand). % Inhibition was determined as a function of radioligand binding to the […].

CB1 receptor [3] = molecular target: T2, CB1 receptor (Homo sapiens, UniProt P21554); test: cell-based; parameters: host or cells: PathHunter cell lines
Method: (§6) The PathHunter® β-Arrestin assay monitors the activation of a GPCR in a homogenous, non-imaging assay format using a technology developed by DiscoverX called Enzyme Fragment Complementation (EFC) with β-galactosidase (3-Gal) as the functional reporter. […] EA is fused to β-Arrestin and PK is fused to the GPCR of interest.
(§7) PathHunter cell lines were expanded from freezer stocks according to standard procedures. Cells were seeded in a total volume of 20 μL into white walled, 384-well microplates and incubated at 37° C. for the appropriate time prior to testing. For agonist activity determination, cells were incubated with sample to induce response. Intermediate dilution of sample stocks was performed to generate 5× sample in assay buffer. 5 μL of 5× sample was added to cells and incubated at 37° C. or room temperature for 90 to 180 minutes. Vehicle concentration was 1%. Assay signal was generated through a single addition of 12.5 or 15 μL (50% v/v) of PathHunter Detection reagent cocktail, followed by a one hour incubation at room temperature. Microplates were read following signal generation with a PerkinElmer Envision™ instrument for chemiluminescent signal detection. Compound activity was analyzed using CBIS data analysis suite (ChemInnovation, CA). For agonist assays, percentage activity was calculated using the following formula: % Activity=100%×(mean RLU of test sample− mean RLU of vehicle control)/(mean MAX control ligand− mean RLU of vehicle control).

CB2 receptor [4] = molecular target: T1, CB2 receptor; test: cell-based; parameters: host or cells: cAMP Hunter cell lines; conditions: PathHunter agonist mode; read-out: CB2 Activity (β-Arrestin)
Method: as §6, §7

CB1 receptor [5] = molecular target: T2, CB1 receptor; test: cAMP Assay #2: Hit Hunter cAMP assay, Gi-coupled agonist activity, CB1; type: cell-based; parameters: host or cells: PathHunter cell lines
Method: as §1, §2, §3, §4

CB1 receptor [6] = molecular target: T2, CB1 receptor; test: CB1 competitive radioligand binding assay ([3H] SR141716A); parameters: expressed in transfected cells; host or cells: Chem-1 cells
Method: as §5
CB1 Radioligand Binding Assay: A compound of the invention (0.5 μM in 1% DMSO) was incubated with Chem-1 cells expressing human recombinant CB1 receptor in buffer (50 mM HEPES, pH 7.4, 5 mM MgCl2, 1 mM CaCl2, 0.2% BSA) for 90 minutes at 37° C. in the presence of 2.0 nM [H^3] SR141716A (CB1 radioligand). % Inhibition was determined as a function of radioligand binding to the CB1 receptor.

[7] = Hit Hunter cAMP, 25 μM forskolin, control ligand CP55,940, read-out: CB2, EC50
[8] = PathHunter agonist mode, read-out: CB1 Activity (β-Arrestin)
[9] = Hit Hunter cAMP, 20 μM forskolin, control ligand CP55,940, read-out: CB1, EC50

T2 sequence (P21554 whole entry, the tested form may be a part): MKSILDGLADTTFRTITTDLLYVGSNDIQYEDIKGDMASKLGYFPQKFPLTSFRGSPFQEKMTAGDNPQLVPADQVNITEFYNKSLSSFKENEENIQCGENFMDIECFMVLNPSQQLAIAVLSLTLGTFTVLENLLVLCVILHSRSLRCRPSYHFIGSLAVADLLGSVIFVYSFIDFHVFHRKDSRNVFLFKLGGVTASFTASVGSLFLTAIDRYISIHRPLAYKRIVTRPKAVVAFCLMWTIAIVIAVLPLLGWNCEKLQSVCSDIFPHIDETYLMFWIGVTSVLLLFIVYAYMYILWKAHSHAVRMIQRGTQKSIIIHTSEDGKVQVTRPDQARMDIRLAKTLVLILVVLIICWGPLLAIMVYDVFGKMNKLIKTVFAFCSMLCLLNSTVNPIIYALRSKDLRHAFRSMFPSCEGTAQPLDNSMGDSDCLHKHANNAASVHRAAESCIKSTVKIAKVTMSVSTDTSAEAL
T1 sequence (P34972 whole entry): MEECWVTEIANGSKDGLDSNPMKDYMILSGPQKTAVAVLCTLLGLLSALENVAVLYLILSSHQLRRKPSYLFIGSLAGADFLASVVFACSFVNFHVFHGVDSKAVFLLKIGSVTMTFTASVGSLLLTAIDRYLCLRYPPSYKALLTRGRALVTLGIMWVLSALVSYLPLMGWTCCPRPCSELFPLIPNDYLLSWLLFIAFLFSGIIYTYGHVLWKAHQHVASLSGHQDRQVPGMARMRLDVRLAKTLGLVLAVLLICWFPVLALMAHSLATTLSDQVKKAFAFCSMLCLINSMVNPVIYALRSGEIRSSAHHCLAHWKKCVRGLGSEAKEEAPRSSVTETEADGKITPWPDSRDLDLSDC

| SMILES | pEC50 (CB2 receptor [1]; [7]) | CB2 fold selectivity (CB2 receptor [1]; Hit Hunter cAMP) | inhibition at 0.05 µM (CB2 receptor [2]; 0.05 μM compound, 2.4 nM [3H] WIN-55,212-2, 90 min 37° C.) | Fold Selectivity (CB1/CB2) (CB2 receptor [2]; Table 2, ratio of Ki CB1/CB2) | pKi (CB2 receptor [2]; Table 2, read-out: CB2 Binding Ki) | pEC50 (CB1 receptor [3]; [8]) | pEC50 (CB2 receptor [4]) | pEC50 (CB1 receptor [5]; [9]) | inhibition at 0.5 µM (CB1 receptor [6]; 0.5 μM compound, 2.0 nM [3H] SR141716A, 90 min 37° C.) | pKi (CB1 receptor [6]; Table 2, read-out: CB1 Binding Ki) | Fold Selectivity (CB1/CB2) (CB2 receptor [2]; Table 3, ratio of Ki CB1/CB2) | pKi (CB2 receptor [2]; Table 3, read-out: Ki CB2) | pKi (CB1 receptor [6]; Table 3, read-out: Ki CB1) | pEC50 (CB2 receptor [1]) | pKi (CB2 receptor [2]) | pEC50 (CB1 receptor [3]) | pEC50 (CB1 receptor [5]) | pKi (CB1 receptor [6]) |
| --- | --- | --- | --- | --- | --- | --- | --- | --- | --- | --- | --- | --- | --- | --- | --- | --- | --- | --- |
| CCCCCCC(C)(C)c1cc(O)c2c(c1)OC(C)(C)[C@@H]1CC=C(C(=O)NC3CCCCC3)C[C@@H]21 [Compound 16, (6aR,10aR)—N-Cyclohexyl-1-hydroxy-6,6-dimethyl-3-(2-methyloctan-2-yl)-6a,7,10,10a-tetrahydro-6H-benzo[c]chromene-9-carboxamide] | 8.57 | >1000 | 57% | 4 | 7.59 | < 5.52 | 8.30 | < 5.52 | 84% | 7.03 | – | – | – | – | – | – | – | – |
| CCCCCCC(C)(C)c1cc(O)c2c(c1)OC(C)(C)[C@@H]1CC=C(C(=O)NOCCO)C[C@@H]21 [Compound 41] | 8.82 | 4.3 | – | – | – | 7.42 | 8.74 | 8.20 | – | – | 6.4 | 8.37 | 7.56 | – | – | – | – | – |
| CCCCCCC(C)(C)c1cc(O)c2c(c1)OC(C)(C)[C@@H]1CC=C(C(=O)N[C@H]3C[C@H](O)C3)C[C@@H]21 [Compound 45, (6aR,10aR)-1-hydroxy-N-((1R,3R)-3-hydroxycyclobutyl)-6,6-dimethyl-3-(2-methyloctan-2-yl)-6a,7,10,10a-tetrahydro-6H-benzo[c]chromene-9-carboxamide] | – | 22.9 | – | – | – | – | 8.22 | – | – | – | 14.3 | – | – | 7.92 | 8.00 | 5.30 | 6.56 | 6.84 |
| CCCCCCC(C)(C)c1cc(O)c2c(c1)OC(C)(C)[C@@H]1CC=C(C(=O)N[C@H]3C[C@@H](O)C3)C[C@@H]21 [Compound 46, (6aR,10aR)-1-hydroxy-N-((1 S,3S)-3-hydroxycyclobutyl)-6,6-dimethyl-3-(2-methyloctan-2-yl)-6a,7,10,10a-tetrahydro-6H-benzo[c]chromene-9-carboxamide] | – | 31.4 | – | – | – | – | 8.44 | – | – | – | 3.9 | – | – | 8.08 | 7.64 | 5.22 | 6.58 | 7.04 |
| CCCCCCC(C)(C)c1cc(O)c2c(c1)OC(C)(C)[C@@H]1CC=C(C(=O)NN3CCCCC3)C[C@@H]21 [Compound 48, (6aR,10aR)-1-hydroxy-6,6-dimethyl-3-(2-methyloctan-2-yl)-N-(piperidin-1-yl)-6a,7,10,10a-tetrahydro-6H-benzo[c]chromene-9-carboxamide] | – | >428 | – | – | – | – | 8.36 | – | – | – | 25.3 | – | – | 8.15 | 8.04 | < 5.52 | < 5.52 | 6.63 |
| CC(C)(CCCCCCO)c1cc(O)c2c(c1)OC(C)(C)[C@@H]1CC=C(C(=O)O)C[C@@H]21 [Compound 57, (6aR,10aR)-1-hydroxy-3-(8-hydroxy-2-methyloctan-2-yl)-6,6-dimethyl-6a,7,10,10a-tetrahydro-6H-benzo[c]chromene-9-carboxylic acid] | – | 2.3 | – | – | – | 6.54 | 7.66 | – | – | – | 2.9 | – | – | 7.40 | 7.25 | – | 7.04 | 6.79 |
| CCCCCCC(C)(C)c1cc(O)c2c(c1)OC(C)(C)[C@@H]1CC=C(C(=O)NC(C)(C)C)C[C@@H]21 [Compound 95, (6aR,10aR)-N-(tert-butyl)-1-hydroxy-6,6-dimethyl-3-(2-methyloctan-2-yl)-6a,7,10,10a-tetrahydro-6H-benzo[c]chromene-9-carboxamide] | – | 11.0 | – | – | – | – | 8.89 | – | – | – | 9.7 | – | – | 8.92 | 8.49 | 7.62 | 7.88 | 7.51 |
| CCCCCCC(C)(C)c1cc(O)c2c(c1)OC(C)(C)[C@@H]1CC=C(C(=O)NO)C[C@@H]21 [Compound 105, (6aR,10aR)-N,1-dihydroxy-6,6-dimethyl-3-(2-methyloctan-2-yl)-6a,7,10,10a-tetrahydro-6H-benzo[c]chromene-9-carboxamide] | – | 1.0 | – | – | – | – | 8.43 | – | – | – | 0.4 | – | – | 7.95 | 7.62 | 7.12 | 7.94 | 8.04 |
| CCCCCCC(C)(C)c1cc(O)c2c(c1)OC(C)(C)[C@@H]1CC=C(C#N)C[C@@H]21 [Compound 112, (6aR,10aR)-1-hydroxy-6,6-dimethyl-3-(2-methyloctan-2-yl)-6a,7,10,10a-tetrahydro-6H-benzo[c]chromene-9-carbonitrile] | – | – | – | – | – | 8.70 | 8.85 | – | – | – | 1.4 | – | – | – | 9.15 | – | – | 9.00 |
